From patent US20210322508A1, “PEPTIDES AND COMPOSITIONS FOR TARGETED TREATMENT AND IMAGING” (SIGNABLOK, INC., priority 2018, published 2021)
Residues, ends and D or L forms follow the SMILES beside them.

Tests used:
[1] = system: DBA/1 mice with collagen-induced arthritis; assay: Collagen-induced arthritis (CIA) model; conditions: for CIA severity; bone and cartilage damage: 5 mg/kg i.p. daily 14 days, free peptides
Protocol: Animal studies were performed by Bolder BioPATH (Boulder, Colo., USA). CIA was induced in male 6- to 7-week-old DBA/1 mice by immunization with bovine type II collagen. Briefly, mice were injected intradermally with 100 μl of Freund's complete adjuvant containing 250 μg of bovine type II collagen (2 mg/ml final concentration) at the base of the tail on day 0 and again on day 21. On day 24, mice were randomized by body weight into treatment groups. […] Mice were weighed on study days 24, 26, 28, 30, 32, 34, 36 and 38 (prior to necropsy). Daily clinical scores were given on a scale of 0-5 for each of the paws on days 24-38. On day 38, mice were killed for necropsy.
At the end of study, fore paws, hind paws and knees were harvested, fixed in 10% neutral buffered formalin for 1-2 days, and then decalcified in 5% formic acid for 4-5 days before standard processing for paraffin embedding. Sections (8 μm) were cut and stained with toluidine blue (T blue). Hind paws, fore paws and knees were embedded and sectioned in the frontal plane. Six joints from each animal were processed for histopathological evaluation. The joints were then assessed using 0-5 scale for inflammation, pannus formation, cartilage damage, bone resorption and periosteal new bone formation. A summed histopathology score (sum of five parameters, 0-25 scale) was also determined.
Animal studies were performed by Bolder BioPATH (Boulder, Colo., USA). CIA was induced in male 6- to 7-week-old DBA/1 mice by immunization with bovine type II collagen. Briefly, mice were injected intradermally with 100 μl of Freund's complete adjuvant containing 250 μg of bovine type II collagen (2 mg/ml final concentration) at the base of the tail on day 0 and again on day 21. On day 24, mice were randomized by body weight into treatment groups. […] Starting day 24, mice were injected i.p. intraperitoneally daily for 14 consecutive days with 5 mg/kg G-KV21, G-HV21, G-TE21, M-TK32 and M-VE32 or with PBS (vehicle). Mice were weighed on study days 24, 26, 28, 30, 32, 34, 36 and 38 (prior to necropsy). Daily clinical scores were given on a scale of 0-5 for each of the paws on days 24-38. On day 38, mice were killed for necropsy.

[2] = system: LPS-stimulated macrophages; assay: cytokine production by LPS-stimulated macrophages; format: cell-based, murine; conditions: 24 h at 37° C.; for cytokine release by LPS-stimulated macrophages in the presence of HDL: with HDL
Protocol: FIG. 33 presents exemplary data showing cytokine production by LPS-stimulated macrophages incubated for 24 h at 37° C. with GF9, G-TE21, G-HV21 and G-KV21 in the presence of HDL.

[3] = system: AsPC-1, BxPC-3 and Capan-1 xenograft tumors; assay: Human PC xenograft mouse models: tumor growth, survival, tolerability; format: in vivo; conditions: free peptides i.p. once daily 5 days per week at indicated doses
Protocol: (§1) Mice were monitored daily and tumor measurements were taken along the length and width using Vernier calipers twice weekly until sacrifice. Tumor volumes were calculated using a modified ellipsoidal formula: (Length×Width^2)/2.
Results are expressed as the mean±SEM.
as §1
Mice were monitored daily and tumor measurements were taken along the length and width using Vernier calipers twice weekly until sacrifice.

[4] = Mouse tolerability studies; format: in vivo; conditions: female, C57BL/6, mouse, in vivo, ip
Protocol: Naïve, female C57BL/6 mice at 8 to 10 weeks of age (18 to 21 g) from the Jackson Laboratory were used. […] Clinical observations and body weights were made twice daily.
Naïve, female C57BL/6 mice at 8 to 10 weeks of age (18 to 21 g) from the Jackson Laboratory were used. Animals were randomly grouped (5 mice per group) and i.p. injected with 400 mg/kg G-HV21, G-KV21 or G-TE21. Clinical observations and body weights were made twice daily.

mouse lipoproteins = assay: ultracentrifugation of mouse serum with added rho B-labeled peptides; conditions: for behaviour on ultracentrifugation of delipoproteinized mouse serum: rho B-labeled peptide added to delipoproteinized mouse serum; for behaviour on ultracentrifugation of whole mouse serum: rho B-labeled peptide added to whole mouse serum
[5] = system: mice with collagen-induced arthritis (CIA); assay: collagen-induced arthritis (CIA) in mice; conditions: for tolerability in arthritic mice (body weight changes) / arthritis (clinical arthritis score): CIA mice; for tolerability in arthritic mice (body weight changes): day 24 to day 38; for arthritis (clinical arthritis score): treatment days 24-38
Text: As described herein, starting on day 24 after immunization, mice with CIA were intraperitoneally (i.p.) administered daily for 14 consecutive days with vehicle (black diamonds), dexamethasone (black squares), GF9 (white circles), GF9-LPC (black circles) and GA/E31-LPC (half black half white circles) at indicated doses. Daily clinical scores were given on a scale of 0-5 for each of the paws on days 24-38. On day 38, mice were killed and the histopathological examination of mouse joints was performed. Histopathological scores of inflammation (I), pannus (P), cartilage damage (CD), bone resorption (BR) and periosteal new bone formation (PBF) are shown. Summed histopathology scores were calculated as the sum of all five histopathological parameters. All results are expressed as the mean±SEM (n=10 mice per group).
Mouse body weight (BW) was measured every other day from day 24 to day 38. Mean BW changes were calculated as a percentage of the difference between beginning (day 24) and final (day 38) BWs of the CIA mice intraperitoneally (i.p.) treated daily for 14 consecutive days with vehicle, dexamethasone, GF9, GF9-LPC and GA/E31-LPC at indicated doses. All results are expressed as the mean±SEM (n=10 mice per group).
Plasma was collected on days 24, 30 and 38 from arthritic mice treated with vehicle (black diamonds), GF9 (white circles), GF9-LPC (black circles) and GA/E31-LPC (half black half white circles). Plasma samples were analyzed for concentrations of interleukin-1b (IL-1b), IL-6, and colony-stimulating factor 1 (CSF1). Results are expressed as the mean±SEM (n=5 mice per group).

[6] = tolerability in healthy mice (body weight); format: in vivo
Protocol: As described herein, healthy C57BL/6 mice were intraperitoneally (i.p.) administered daily for 7 consecutive days with GF9 at indicated doses Mouse body weight (BW) was measured daily.

H292 and A549 xenografts = conditions: for tumor growth: free peptides i.p. at indicated doses
Protocol: Animal efficacy studies were performed using female 6-8 week old NU/J mice from the Jackson Laboratory (Bar Harbor, Me.). Animals were handled as specified in the USDA Animal Welfare Act (9 CFR, Parts 1, 2, and 3) and as described in the Guide for the Care and Use of Laboratory Animals from the National Research Council. Human lung carcinoma cell lines H292 and A549 were obtained from ATCC. Tumor cells in culture were harvested and resuspended in a 1:1 ratio of RPMI 1640 and Matrigel (BD Biosciences, San Jose, Calif.). NSCLC xenografts were established by injecting subcutaneously into the right flanks 5×10^6 viable cells per mouse. Tumor volumes were calculated with caliper measurements using the formula V=π/6 (length×width×width). […] All tested formulations were intraperitoneally (i.p.) injected at indicated doses and administration schedule. Clinical observations, body weights and tumor volume measurements were made 3 times weekly. Tumor volumes were analyzed using repeated measures ANOVA followed by Bonferroni test. Data points were represented as mean tumor volume±SEM. Antitumor effects were expressed as the percentage of T/C (treated versus control), dividing the tumor volumes from treatment groups with the control groups and multiplied by 100. According to the National Cancer Institute (NCI) standards (see e.g., Johnson, et al. Br J Cancer 2001, 84:1424-1431), a % T/C≤42 is indicative of antitumor activity. At the end of the experiment, the animals were sacrificed and the tumors were excised and weighed.

[7] = 400 mg/kg, free form, healthy mice
[8] = healthy C57BL/6 mice, average weights

SMILES	CIA severity; bone and cartilage damage [1]	cytokine release by LPS-stimulated macrophages in the presence of HDL [2]	tumor growth [3]	MTD [4, 7] [mg/kg]	behaviour on ultracentrifugation of delipoproteinized mouse serum (mouse lipoproteins)	behaviour on ultracentrifugation of whole mouse serum (mouse lipoproteins)	tolerability in arthritic mice (body weight changes) [5]	arthritis (clinical arthritis score) [5]	toxicity in healthy mice [6, 8]	tumor growth (H292 and A549 xenografts)	toxicity / tolerability in arthritic mice ([1]; mouse, in vivo, ip)	MTD [4] [mg/kg]	penetration of the synovial membrane ([5]; mouse, in vivo)	MTD at 168 h ([6]; C57BL/6, mouse, in vivo, ip) [mg/kg]	dose tolerated by healthy mice ([6]; healthy mice, GF9 i.p. daily for 7 consecutive days)	toxicity in healthy mice ([6]; mouse, in vivo)	toxicity / tolerability in cancer mice (H292 and A549 xenografts; in vivo)	cytokine production by LPS-stimulated macrophages in the absence of HDL ([2]; without HDL)
CC(C)C[C@H](NC(=O)[C@H](Cc1ccccc1)NC(=O)CN)C(=O)N[C@@H](CO)C(=O)N[C@@H](CCCCN)C(=O)N[C@@H](CO)C(=O)N[C@@H](CC(C)C)C(=O)N[C@H](C(=O)N[C@@H](Cc1ccccc1)C(=O)N[C@@H](Cc1c[nH]c2ccccc12)C(=O)N[C@@H](CCC(N)=O)C(=O)N[C@@H](CCC(=O)O)C(=O)N[C@@H](CCC(=O)O)C(=O)N[C@@H](CC[S+](C)[O-])C(=O)N[C@@H](CCC(=O)O)C(=O)N[C@@H](CC(C)C)C(=O)N[C@@H](Cc1ccc(O)cc1)C(=O)N[C@@H](CCCNC(=N)N)C(=O)N[C@@H](CCC(N)=O)C(=O)N[C@@H](CCCCN)C(=O)N[C@H](C(=O)O)C(C)C)C(C)C (some centres unmarked) [G-KV21] (HELM PEPTIDE1{G.F.L.S.K.S.L.V.F.W.Q.E.E.[CS(=O)CC[C@H](N[*:1])C(=O)[*:2]].E.L.Y.R.Q.K.V}$$$$V2.0)	ameliorate CIA and protect against bone and cartilage damage	significantly inhibit the cytokine release	inhibit tumor growth in three human PC xenograft mouse models	≥ 400	sedimentate with serum proteins	floatation of these peptides with mouse lipoproteins	well-tolerated by arthritic mice	ameliorate the disease	No toxicity was observed	inhibit tumor growth in two human NSCLC xenograft mouse models								
CC(C)C[C@H](NC(=O)[C@H](Cc1ccccc1)NC(=O)CN)C(=O)N[C@@H](CO)C(=O)N[C@@H](CCCCN)C(=O)N[C@@H](CO)C(=O)N[C@@H](CC(C)C)C(=O)N[C@H](C(=O)N[C@@H](Cc1ccccc1)C(=O)O)C(C)C [GF9] (H-GFLSKSLVF-OH)						sedimentate with serum proteins					non-toxic and well-tolerable by arthritic mice	≥ 300	penetrate the synovial membrane	≥ 300	up to 300 mg/kg	non-toxic	non-toxic and well-tolerable by cancer mice	
CC(C)C[C@H](NC(=O)[C@H](Cc1ccccc1)NC(=O)CN)C(=O)N[C@@H](CO)C(=O)N[C@@H](CCCCN)C(=O)N[C@@H](CO)C(=O)N[C@@H](CC(C)C)C(=O)N[C@H](C(=O)N[C@@H](Cc1ccccc1)C(=O)NCC(=O)N[C@@H](CCC(=O)O)C(=O)N[C@@H](CCC(=O)O)C(=O)N[C@@H](CC[S+](C)[O-])C(=O)N[C@@H](CCCNC(=N)N)C(=O)N[C@@H](CC(=O)O)C(=O)N[C@@H](CCCNC(=N)N)C(=O)N[C@@H](C)C(=O)N[C@@H](CCCNC(=N)N)C(=O)N[C@@H](C)C(=O)N[C@@H](Cc1c[nH]cn1)C(=O)N[C@H](C(=O)O)C(C)C)C(C)C (some centres unmarked) [G-HV21] (HELM PEPTIDE1{G.F.L.S.K.S.L.V.F.G.E.E.[CS(=O)CC[C@H](N[*:1])C(=O)[*:2]].R.D.R.A.R.A.H.V}$$$$V2.0)	ameliorate CIA and protect against bone and cartilage damage	significantly inhibit the cytokine release	inhibit tumor growth in three human PC xenograft mouse models	≥ 400	sedimentate with serum proteins	floatation of these peptides with mouse lipoproteins	well-tolerated by arthritic mice	ameliorate the disease	No toxicity was observed	inhibit tumor growth in two human NSCLC xenograft mouse models								does not affect the cytokine production
